Our source for the AC50 and EC50 values is patent US12344610B2, “APOL1 inhibitors and methods of use” (Maze Therapeutics, Inc., priority 2022, dated 2025).

One may read the AC50 as the concentration giving half of the maximal activity seen. Usually EC50 stands for the concentration giving half of the maximal effect.

For one assay, the target named is T1, APOL1 G2 (Homo sapiens, UniProt O14791, DEL388-389).
T1 construct: expressed in transfected cells; host or cells: HEK293 T-REx clonal line stably expressing GCaMP6f (HEK T-REx/GCaMP6f/APOL1 G2 K6.3), doxycycline induced
T1 sequence (O14791 with tags, fused parts or gaps DEL388-389): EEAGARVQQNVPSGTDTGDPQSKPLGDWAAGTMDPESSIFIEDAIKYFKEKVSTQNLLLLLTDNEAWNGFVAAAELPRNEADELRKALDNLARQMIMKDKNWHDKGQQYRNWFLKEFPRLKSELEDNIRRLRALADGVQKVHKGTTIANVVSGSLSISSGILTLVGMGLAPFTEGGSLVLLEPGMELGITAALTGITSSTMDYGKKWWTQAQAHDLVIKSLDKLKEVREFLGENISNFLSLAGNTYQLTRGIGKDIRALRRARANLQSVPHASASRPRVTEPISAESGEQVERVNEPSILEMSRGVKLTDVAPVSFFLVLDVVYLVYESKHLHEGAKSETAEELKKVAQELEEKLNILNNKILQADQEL
The assay can be described thus: APOL1-mediated calcium transport (calcium influx) assay, HEK T-REx/GCaMP6f/APOL1 G2 K6.3 cells, FLIPR TETRA. It is filed as cell-based. To be noted: prevention of calcium influx; geometric mean of at least 2 assay runs; † = average of a technical replicate from a single assay run. An outline of the steps: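 A HEK293 T-REx clone stably expressing GCaMP6f had APOL1 G2 induced with doxycycline (20 ng/mL solution added) for 6 h. Cells were then washed into Ca2+-free Tyrode's buffer (pH 7.4) and preincubated with compounds (duplicate 8-point) for 10 min at room temperature. Ca2+ injection to 5 mM final produced FLIPR GCaMP fluorescence, giving AC50 for influx inhibition (geometric mean, ≥2 runs).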

In assay [1] the test system is HEK293 cells overexpressing APOL1 G2. The assay can be described thus: APOL1 G2 HEK293 cell rescue assay (reversal of cell death caused by overexpression of APOL1). The assay is classed as cell-based. The note with it: Homo sapiens, HEK293, HEK293 overexpressing APOL1 G2; geometric mean of at least 2 assay runs; † = single assay run. In a few lines: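 EC50 is the half-maximal effective concentration for reversing cell death driven by APOL1 G2 overexpression in HEK293 cells. Reported as geometric mean of at least 2 runs on separate days, each run averaging duplicate wells per plate; some values from a single run.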

Regarding `CS(=O)(=O)NC1CN(C(=O)c2ccc(OCCN3CCC4(CC3)C(=O)Nc3ccc(Cl)cc34)cc2F)C1` [Compound 237, N-{1-[4-(2-{5-chloro-2-oxo-1,2-dihydrospiro[indole-3,4′-piperidin]-1′-yl}ethoxy)-2-fluorobenzoyl]azetidin-3-yl} methanesulfonamide], the AC50 on APOL1 G2 is 3310 nM. Further, in assay [1], the concentration for a half-maximal effect (EC50) is 238 nM.

`CS(=O)(=O)Nc1ccc(OCCN2CCC3(CC2)C(=O)Nc2ccc(Cl)cc23)cc1` [Compound 214, N-[4-(2-{5-chloro-2-oxo-1,2-dihydrospiro[indole-3,4′-piperidin]-1′-yl}ethoxy)phenyl]methanesulfonamide]: the AC50 on APOL1 G2 amounted to 355 nM. The EC50 in assay [1] is 79 nM.

Consider `CN1C(=O)C2(CCN(CCOc3ccc(C4(S(C)(=O)=O)COC4)cc3)CC2)c2cc(C#N)ccc21` [Compound 251, 1′-{2-[4-(3-methanesulfonyloxetan-3-yl)phenoxy]ethyl}-1-methyl-2-oxo-1,2-dihydrospiro[indole-3,4′-piperidine]-5-carbonitrile], for which, at APOL1 G2, the half-maximal activity concentration (AC50) was determined as 546 nM. In addition, in assay [1], the EC50 was 125 nM.

For `N#Cc1ccc2c(c1)C1(CCN(CCOc3ccc(C(N)=O)c(F)c3)CC1)C(=O)N2` [Compound 238, 4-(2-{5-cyano-2-oxo-1,2-dihydrospiro[indole-3,4′-piperidin]-1′-yl}ethoxy)-2-fluorobenzamide], at APOL1 G2, the AC50 worked out at 285 nM. Further, in assay [1], the EC50 was 85.2 nM.

With `O=C(c1ccc(OCCN2CCC3(CC2)C(=O)Nc2ccc(Cl)cc23)cc1F)N1CCOCC1` [Compound 231, 5-chloro-1′-{2-[3-fluoro-4-(morpholine-4-carbonyl)phenoxy]ethyl}-1,2-dihydrospiro[indole-3,4′-piperidin]-2-one], the AC50 on APOL1 G2 turned out to be 1020 nM. Moreover, the EC50 in assay [1] came out at 42 nM.

With `CNC(=O)N1CCc2cc(OCCN3CCC4(CC3)C(=O)Nc3ccc(Cl)cc34)ccc2C1` [Compound 245, 6-(2-{5-chloro-2-oxo-1,2-dihydrospiro[indole-3,4′-piperidin]-1′-yl}ethoxy)-N-methyl-1,2,3,4-tetrahydroisoquinoline-2-carboxamide], on APOL1 G2, the AC50 was 718 nM. Besides, the EC50 in assay [1] was determined as 139 nM.

Turning to `CC1(O)CN(c2nccc3cc(OCCN4CCC5(CC4)C(=O)Nc4ccc(Cl)cc45)cnc23)C1` [Compound 306, 5-chloro-1′-(2-{[8-(3-hydroxy-3-methylazetidin-1-yl)-1,7-naphthyridin-3-yl]oxy}ethyl)-1,2-dihydrospiro[indole-3,4′-piperidin]-2-one], the AC50 at APOL1 G2 stood at 1400 nM. Besides, in assay [1], the concentration for a half-maximal effect (EC50) was 110 nM.

Regarding `CS(=O)(=O)C1CN(C(=O)c2ccc(OCCN3CCC4(CC3)C(=O)Nc3ccc(Cl)cc34)cc2F)C1` [Compound 233, 5-chloro-1′-{2-[3-fluoro-4-(3-methanesulfonyl-azetidine-1-carbonyl)phenoxy]ethyl}-1,2-dihydrospiro[indole-3,4′-piperidin]-2-one], the AC50 on APOL1 G2 is 1160 nM. Further, in assay [1], the EC50 is 57.7 nM.

As to `CS(=O)(=O)c1ccc(OCCN2CCC3(CC2)C(=O)N(CCO)c2ccc(Br)cc23)cc1` [Compound 24, 5-bromo-1-(2-hydroxyethyl)-1′-[2-(4-methanesulfonylphenoxy)ethyl]-1,2-dihydrospiro[indole-3,4′-piperidin]-2-one], the AC50 on APOL1 G2 came out at 200 nM. In addition, the EC50 in assay [1] stood at 240 nM.

`CS(=O)(=O)c1ccc(OCCN2CCC3(CC2)C(=O)Nc2ccc(Cl)cc23)cc1C(F)F` [Compound 197, 5-chloro-1′-{2-[3-(difluoromethyl)-4-methanesulfonylphenoxy]ethyl}-1,2-dihydrospiro[indole-3,4′-piperidin]-2-one]: at APOL1 G2, the half-maximal activity concentration (AC50) turned out to be 889 nM. In assay [1], the EC50 stood at 32.3 nM.

Consider `O=C(c1ccc(OCCN2CCC3(CC2)C(=O)Nc2ccc(Cl)cc23)cc1F)N1CCC1` [Compound 234, 1′-{2-[4-(azetidine-1-carbonyl)-3-fluorophenoxy]ethyl}-5-chloro-1,2-dihydrospiro[indole-3,4′-piperidin]-2-one], for which the AC50 on APOL1 G2 stood at 786 nM. Besides, the EC50 in assay [1] was determined as 80.3 nM.
